Measured values published in patent US20230263822A1, “MODULATION OF FACTOR 11 EXPRESSION” (Ionis Pharmaceuticals, Inc., priority 2008, published 2023).

What was measured:
[1] = Bleeding assay, Surgicutt Jr. device (Example 45); assay type: in vivo, cynomolgus monkeys; set-up: unit not given here; settings: escalating dose regimen
Experimental: (§1) Groups, each consisting of two male and three female monkeys, were injected subcutaneously with ISIS 416838, ISIS 416850, ISIS 416858, ISIS 416864, or ISIS 417002 in escalating doses. Antisense oligonucleotide was administered to the monkeys at 5 mg/kg three times per a week for week 1; 5 mg/kg twice per week for weeks 2 and 3; 10 mg/kg three times per week for week 4; 10 mg/kg twice per week for weeks 5 and 6; 25 mg/kg three times per week for week 7; and 25 mg/kg twice per week for weeks 8, 9, 10, 11, and 12. One control group, consisting of two male and three female monkeys, was injected subcutaneously with PBS according to the same dosing regimen. An additional experimental group, consisting of two male and three female monkeys, was injected subcutaneously with ISIS 416850 in a chronic, lower dose regimen. Antisense oligonucleotide was administered to the monkeys at 5 mg/kg three times per week for week 1; 5 mg/kg twice per week for week 2 and 3; 10 mg/kg three times per week for week 4; and 10 mg/kg twice per week for weeks 5 to 12. Body weights were measured weekly. Blood samples were collected 14 days and 5 days before the start of treatment and subsequently once per week for Factor 11 protein activity analysis in plasma, fibrinogen measurement, PT and aPTT measurements, bleeding times, and measurement of various hematologic factors. On day 85, the monkeys were euthanized by exsanguination while under deep anesthesia, and organs harvested for further analysis.
On different days during the treatment period, bleeding assay was performed using a Surgicutt Jr. device (ITC, New Jersey). Monkeys were placed in monkey chair with their arm placed in a steady support. The arm was lightly shaved and a sphygmomanometer was placed on the upper arm. The cuff of the sphygmomanometer was inflated to 40 mm Hg and this pressure was maintained throughout the procedure. The area on the upper arm to be incised was cleansed with an antiseptic swab and the Surgicutt Jr device was used to make an incision over the lateral aspect, volar surface of the forearm, parallel to and 5 cm below the antecubital crease. At the exact moment the incision was made, a stopwatch was started. Every 30 seconds, blood from the incision was blotted out using a blotting paper without directly touching the incision, so that formation of the platelet plug was not disturbed. Blood was blotted out every 30 seconds until blood no longer stained the paper. The stopwatch was then stopped and the bleeding time determined. The sphygmomanometer was removed from the animal's arm, the incision site was antiseptically swabbed and a wound closure strip applied. The ISIS oligonucleotide, ISIS 416850, given with the chronic dose regimen is distinguished from the other oligonucleotides with an asterisk (*).

[2] = Tolerability in Sprague-Dawley rats: liver function (Example 35); settings: plasma, 50 mg/kg s.c. twice per week for 6 weeks
Factor 11 protein = Factor 11 protein in monkey plasma by sandwich ELISA (Example 45); assay type: in vivo, cynomolgus monkeys; settings: escalating dose regimen, plasma ELISA
Experimental: as §1
Plasma samples from all monkey groups taken on different days were analyzed by a sandwich-style ELISA assay (Affinity Biologicals Inc.) using an affinity-purified polyclonal anti-Factor 11 antibody as the capture antibody and a peroxidase-conjugated polyclonal anti-Factor 11 antibody as the detecting antibody. Monkey plasma was diluted 1:50 for the assay. Peroxidase activity was expressed by incubation with the substrate o-phenylenediamine. The color produced was quantified using a microplate reader at 490 nm and was considered to be proportional to the concentration of Factor 11 in the samples.
The results are presented in Table 115, expressed as percentage reduction relative to that of the PBS control.

[3] = Kidney function, urine protein to creatinine ratio in cynomolgus monkeys (Example 45); assay type: in vivo
Experimental: as §1
To evaluate the impact of ISIS oligonucleotides on kidney function, urine samples were collected.

[4] = Body and organ weights of cynomolgus monkeys (Example 45); assay type: in vivo; settings: for Organ weights, Kidney / Organ weights, Liver / Organ weights, Spleen: after the animals were euthanized; for body weights: escalating dose regimen;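 as to Organ weights, Kidney: absolute organ weight in grams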;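 as to Organ weights, Liver: absolute organ weight in grams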;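 as to Organ weights, Spleen: absolute organ weight in grams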
Experimental: as §1
Body weights were taken once weekly throughout the dosing regimen. […] Organ weights were taken after the animals were euthanized and livers, kidneys and spleens were harvested and weighed. […] The ISIS oligonucleotide, ISIS 416850, given with the chronic dose regimen is distinguished from the other oligonucleotides with an asterisk (*).

ISIS 417002: MOE gapmer, nucleobases 1275 to 1318 of SEQ ID NO: 1 (Table 8) (antisense GGTGCACAGTTTCTGGCAGG; MOE gapmer, wing and gap sizes not given here)
bleeding time ([1]; day 15): 174
bleeding time ([1]; day 22): 194
bleeding time ([1]; day 36): 186
bleeding time ([1]; day 43): 120
bleeding time ([1]; day 57): 206
bleeding time ([1]; day 64): 146
bleeding time ([1]; day 78): 163
bleeding time ([1]; day 85): 182
bleeding time ([1]; day −5): 175
bleeding time ([1]; day −14): 185
ALT [2]: 44 IU/L
AST [2]: 11 IU/L
Albumin [2]: 3
Bilirubin [2]: 12 mg/dL
Inhibition of Factor 11 protein relative to the PBS control (Factor 11 protein; day 8): 0%
Inhibition of Factor 11 protein relative to the PBS control (Factor 11 protein; day 15): 4%
Inhibition of Factor 11 protein relative to the PBS control (Factor 11 protein; day 22): 2%
Inhibition of Factor 11 protein relative to the PBS control (Factor 11 protein; day 29): 8%
Inhibition of Factor 11 protein relative to the PBS control (Factor 11 protein; day 36): 8%
Inhibition of Factor 11 protein relative to the PBS control (Factor 11 protein; day 43): 9%
Inhibition of Factor 11 protein relative to the PBS control (Factor 11 protein; day 50): 13%
Inhibition of Factor 11 protein relative to the PBS control (Factor 11 protein; day 57): 24%
Inhibition of Factor 11 protein relative to the PBS control (Factor 11 protein; day 64): 26%
Inhibition of Factor 11 protein relative to the PBS control (Factor 11 protein; day 71): 30%
Inhibition of Factor 11 protein relative to the PBS control (Factor 11 protein; day 78): 22%
Inhibition of Factor 11 protein relative to the PBS control (Factor 11 protein; day 85): 23%
Inhibition of Factor 11 protein relative to the PBS control (Factor 11 protein; day −5): 0%
Inhibition of Factor 11 protein relative to the PBS control (Factor 11 protein; day −14): 0%
urine protein to creatinine ratio ([3]; Day 80): 0.18
urine protein to creatinine ratio ([3]; Day 84): 0.24
Organ weights, Kidney [4]: 15 g
Organ weights, Liver [4]: 51 g
Organ weights, Spleen [4]: 5 g
body weights ([4]; day 1): 2640 g
body weights ([4]; day 8): 2523 g
body weights ([4]; day 15): 2571 g
body weights ([4]; day 22): 2617 g
body weights ([4]; day 29): 2622 g
body weights ([4]; day 36): 2631 g
body weights ([4]; day 43): 2630 g
body weights ([4]; day 50): 2652 g
body weights ([4]; day 57): 2654 g
body weights ([4]; day 64): 2598 g
body weights ([4]; day 71): 2727 g
body weights ([4]; day 78): 2570 g

ISIS 416838: MOE gapmer, nucleobases 1018 to 1042 of SEQ ID NO: 1 (Table 6) (antisense GCAACCGGGATGATGAGTGC; MOE gapmer, wing and gap sizes not given here)
bleeding time ([1]; day 15): 167
bleeding time ([1]; day 22): 165
bleeding time ([1]; day 36): 166
bleeding time ([1]; day 43): 120
bleeding time ([1]; day 57): 238
bleeding time ([1]; day 64): 131
bleeding time ([1]; day 78): 145
bleeding time ([1]; day 85): 201
bleeding time ([1]; day −5): 150
bleeding time ([1]; day −14): 200
ALT [2]: 5 IU/L
AST [2]: 2 IU/L
Albumin [2]: 2
Bilirubin [2]: 4 mg/dL
Inhibition of Factor 11 protein relative to the PBS control (Factor 11 protein; day 8): 3%
Inhibition of Factor 11 protein relative to the PBS control (Factor 11 protein; day 15): 4%
Inhibition of Factor 11 protein relative to the PBS control (Factor 11 protein; day 22): 5%
Inhibition of Factor 11 protein relative to the PBS control (Factor 11 protein; day 29): 8%
Inhibition of Factor 11 protein relative to the PBS control (Factor 11 protein; day 36): 11%
Inhibition of Factor 11 protein relative to the PBS control (Factor 11 protein; day 43): 5%
Inhibition of Factor 11 protein relative to the PBS control (Factor 11 protein; day 50): 8%
Inhibition of Factor 11 protein relative to the PBS control (Factor 11 protein; day 57): 10%
Inhibition of Factor 11 protein relative to the PBS control (Factor 11 protein; day 64): 11%
Inhibition of Factor 11 protein relative to the PBS control (Factor 11 protein; day 71): 12%
Inhibition of Factor 11 protein relative to the PBS control (Factor 11 protein; day 78): 10%
Inhibition of Factor 11 protein relative to the PBS control (Factor 11 protein; day 85): 10%
Inhibition of Factor 11 protein relative to the PBS control (Factor 11 protein; day −5): 0%
Inhibition of Factor 11 protein relative to the PBS control (Factor 11 protein; day −14): 0%
urine protein to creatinine ratio ([3]; Day 80): 0.13
urine protein to creatinine ratio ([3]; Day 84): 0.13
Organ weights, Kidney [4]: 12 g
Organ weights, Liver [4]: 63 g
Organ weights, Spleen [4]: 5 g
body weights ([4]; day 1): 2720 g
body weights ([4]; day 8): 2592 g
body weights ([4]; day 15): 2642 g
body weights ([4]; day 22): 2702 g
body weights ([4]; day 29): 2689 g
body weights ([4]; day 36): 2708 g
body weights ([4]; day 43): 2700 g
body weights ([4]; day 50): 2731 g
body weights ([4]; day 57): 2737 g
body weights ([4]; day 64): 2746 g
body weights ([4]; day 71): 2869 g
body weights ([4]; day 78): 2766 g
